According to patent US9615577B2, “Herbicidally active cyclic dione compounds, or derivatives therefor, substituted by a phenyl which has an alkynyl-containing substituent” (Syngenta Limited, priority 2012, dated 2017):

Key:
Type in all cases: in vivo
[1] = tested on: Alopecurus myosuroides (ALOMY); assay: Test 1A glasshouse assay for herbicidal activity, post-emergence; settings: 312 h, evaluated after 13 days, read-out: percentage phytotoxicity ALOMY
How it was run: (§1)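 Pots sprayed 1 day (pre-emergence) or 8 days (post-emergence) after sowing with compound in acetone/water (50:50) containing 0.5% Tween 20. Glasshouse at 24/16 °C day/night, 14 h light, 65% humidity; visual phytotoxicity scored after 13 days on 0–100 scale (100 = total damage).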

[2] = tested on: Amaranthus retroflexus (AMARE); assay: as above; settings: 312 h, evaluated after 13 days, read-out: percentage phytotoxicity AMARE
How it was run: as §1

[3] = tested on: Echinochloa crus-galli (ECHCG); assay: as above; settings: 312 h, evaluated after 13 days, read-out: percentage phytotoxicity ECHCG
How it was run: as §1

[4] = tested on: Setaria faberi (SETFA); assay: as above; settings: 312 h, evaluated after 13 days, read-out: percentage phytotoxicity SETFA
How it was run: as §1

[5] = tested on: Beta vulgaris (BEAVA, sugar beet); assay: Test 1B glasshouse assay for herbicidal activity, pre-emergence; settings: 480 h, 20 DAA, read-out: percentage phytotoxicity BEAVA
Description: (§2) Seeds of a variety of monocotyledonous and dicotyledonous test plants are sown in standard soil in pots. The plants are cultivated for one day (for pre-emergence) or for about 12 days (range=10-13 days) (for post-emergence) under controlled conditions in a glasshouse (warm climate species at 24/18° C., cool climate species at 20/16° C., both at day/night; 16 hours light; 65% humidity).
(§3) An “instant formulation”, known as the “IF50”, containing 50 g/liter (i.e. 5% w/v) of the “technical” (i.e. unformulated) active ingredient is prepared by dissolving the active ingredient in a mixture of organic solvents and emulsifier, details of which are provided in the Table below. This IF50 is then mixed with a small, variable amount of acetone to aid dissolution, before addition of a 0.2% v/v aqueous solution of the adjuvant X-77 (which is a mixture of alkyl aryl polyoxyethylene glycols and free fatty acids in isopropanol, CAS Registry number 11097-66-8), as the aqueous diluent, to form an aqueous spray solution which contains a predetermined concentration of the active ingredient (which varies depending on the application rate of the active ingredient to the plants) and 0.2% v/v of the adjuvant X-77. This aqueous spray solution is then sprayed onto the plants, after one day's cultivation (for pre-emergence) or after about 12 days' cultivation (for post-emergence).
(§4) The test plants are then grown on, in a glasshouse (greenhouse) under controlled conditions (at either 24/18° C. or 20/16° C. (day/night) as mentioned above; 16 hours light; 65% humidity) and are watered twice daily. Either 15 days after application of the herbicide (15 DAA) (for post-emergence), or 20 days after application of the herbicide (20 DAA) (for pre-emergence), the test plants are evaluated visually, and an assessed percentage phytotoxicity score is given for each herbicidal application on each plant species (where 100%=total damage to plant; 0%=no damage to plant).
(§5) Cool climate crop plants: Triticum aestivum (TRZAW, winter wheat), Brassica napus (BRSNN, rape, also called oilseed rape or rapeseed), Beta vulgaris (BEAVA, sugar beet).

[6] = tested on: Brassica napus (BRSNN, rape); assay: as above; settings: 480 h, 20 DAA, read-out: percentage phytotoxicity BRSNN
Description: as §2, §3, §4, §5

[7] = tested on: Triticum aestivum (TRZAW, winter wheat); assay: as above; settings: 480 h, 20 DAA, read-out: percentage phytotoxicity TRZAW
Description: as §2, §3, §4, §5

[8] = tested on: Glycine max (GLXMA, soybean); assay: as above; settings: 480 h, 20 DAA, read-out: percentage phytotoxicity GLXMA
Description: as §2, §3, §4
Warm climate crop plants: Glycine max (GLXMA, soybean).

[9] = tested on: Digitaria sanguinalis (DIGSA); assay: as above; settings: 480 h, 20 DAA, read-out: percentage phytotoxicity DIGSA
Description: as §2, §3, §4
(§6) Warm climate (“warm season”) grassy monocotyledonous weeds: Setaria faberi (SETFA), SORVU (Sorghum bicolor (L.) Moench ssp. Bicolor, or Sorghum vulgare Pers.), Digitaria sanguinalis (DIGSA), Echinochloa crus-galli (ECHCG), and Brachiaria plantaginea (BRAPL).

[10] = tested on: Echinochloa crus-galli (ECHCG); assay: as above; settings: 480 h, 20 DAA, read-out: percentage phytotoxicity ECHCG
Description: as §2, §3, §4, §6

[11] = tested on: Glycine max (GLXMA, soybean); assay: Test 1B glasshouse assay for herbicidal activity, post-emergence; settings: 360 h; for plant injury at 30 g/ha: 30 g/ha application rate; for plant injury at 125 g/ha: 125 g/ha application rate
How it was run: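 Soybean sprayed 1 day after sowing (pre-emergence) or at about 12 days (post-emergence) with aqueous active ingredient plus 0.2% v/v X-77 adjuvant. Plants grown at 24/18 °C day/night, 16 h light, 65% humidity. Visual % phytotoxicity (100% = total damage) scored at 20 DAA pre-emergence, 15 DAA post-emergence.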

[12] = tested on: Alopecurus myosuroides (ALOMY); assay: as above; settings: 360 h; for pest or weed control at 30 g/ha: 30 g/ha application rate; for pest or weed control at 125 g/ha: 125 g/ha application rate
How it was run: (§7)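 Herbicidal effect is expressed as visually assessed percentage plant damage at 15 DAA (post-emergence) and 20 DAA (pre-emergence). Application used an instant formulation of 50 g/L technical material, diluted into 0.2% v/v X-77, onto plants kept at 20/16 °C day/night.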

[13] = tested on: Avena fatua (AVEFA); assay: as above; settings: 360 h; for pest or weed control at 30 g/ha: 30 g/ha application rate; for pest or weed control at 125 g/ha: 125 g/ha application rate
How it was run: as §7

[14] = tested on: Lolium perenne (LOLPE); assay: as above; settings: 360 h; for pest or weed control at 30 g/ha: 30 g/ha application rate; for pest or weed control at 125 g/ha: 125 g/ha application rate
How it was run: as §7

[15] = tested on: Digitaria sanguinalis (DIGSA); assay: as above; settings: 360 h; for pest or weed control at 30 g/ha: 30 g/ha application rate; for pest or weed control at 125 g/ha: 125 g/ha application rate
How it was run: (§8)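 Seeds sown in standard soil; sprayed after 1 day (pre-emergence) or ~12 days (post-emergence) with active ingredient from a 50 g/liter IF50 formulation diluted in 0.2% v/v X-77 aqueous adjuvant. Glasshouse at 24/18° C. day/night, 16 h light, 65% humidity; visual % phytotoxicity scored 20 DAA (pre) or 15 DAA (post).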

[16] = tested on: SORVU (Sorghum bicolor (L.) Moench ssp. Bicolor, or Sorghum vulgare Pers.); assay: as above; settings: 360 h; for pest or weed control at 30 g/ha: 30 g/ha application rate; for pest or weed control at 125 g/ha: 125 g/ha application rate
How it was run: as §8

[17] = tested on: Setaria faberi (SETFA); assay: as above; settings: 360 h; for pest or weed control at 30 g/ha: 30 g/ha application rate; for pest or weed control at 125 g/ha: 125 g/ha application rate
How it was run: as §8

| SMILES | pest or weed control at 30 g/ha [1] | pest or weed control at 250 g/ha [1] | pest or weed control at 30 g/ha [2] | pest or weed control at 250 g/ha [2] | pest or weed control at 30 g/ha [3] | pest or weed control at 250 g/ha [3] | pest or weed control at 30 g/ha [4] | pest or weed control at 250 g/ha [4] | plant injury at 30 g/ha [11] | plant injury at 125 g/ha [11] | pest or weed control at 30 g/ha [12] | pest or weed control at 125 g/ha [12] | pest or weed control at 30 g/ha [13] | pest or weed control at 125 g/ha [13] | pest or weed control at 30 g/ha [14] | pest or weed control at 125 g/ha [14] | pest or weed control at 30 g/ha [15] | pest or weed control at 125 g/ha [15] | pest or weed control at 30 g/ha [16] | pest or weed control at 125 g/ha [16] | further results |
| --- | --- | --- | --- | --- | --- | --- | --- | --- | --- | --- | --- | --- | --- | --- | --- | --- | --- | --- | --- | --- | --- |
| CC#Cc1cc(C)c(C2=C(OC(C)=O)CC(c3ccccn3)CC2=O)c(C)c1 (stereo not shown) [Compound A-15] | 90% | 100% | 0% | 60% | 100% | 100% | 100% | 100% | 20% | 60% | 70% | 80% | 60% | 80% | 80% | 90% | 90% | 100% | 80% | 100% | plant injury at 125 g/ha ([5]; 125 g/ha): 0%; plant injury at 125 g/ha ([6]; 125 g/ha): 80%; plant injury at 125 g/ha ([7]; 125 g/ha): 0%; plant injury at 125 g/ha ([8]; 125 g/ha): 10%; pest or weed control at 125 g/ha ([9]; 125 g/ha): 100%; pest or weed control at 125 g/ha ([10]; 125 g/ha): 80%; pest or weed control at 30 g/ha [17]: 80%; pest or weed control at 125 g/ha [17]: 100% |
| CC#Cc1cc(Cl)c(C2C(=O)C3CCC(C3)C2=O)c(OCC)c1 (stereo not shown) [Compound A-16] | 90% | 100% | 30% | 70% | 100% | 100% | 100% | 100% | 0% | 30% | 20% | 80% | 0% | 60% | 20% | 70% | 80% | 100% | 80% | 100% | plant injury at 250 g/ha [5]: 0%; plant injury at 250 g/ha [6]: 0%; plant injury at 250 g/ha [7]: 0%; plant injury at 250 g/ha [8]: 20%; pest or weed control at 250 g/ha [9]: 100%; pest or weed control at 250 g/ha [10]: 80%; pest or weed control at 30 g/ha [17]: 80%; pest or weed control at 125 g/ha [17]: 100% |
| CC#Cc1cc(Cl)c(C2C(=O)C3CCC(C)(C2=O)C3(C)C)c(OC)c1 (stereo not shown) [Compound A-17] |  | 90% |  | 0% |  | 100% |  | 90% |  |  |  |  |  |  |  |  |  |  |  |  | plant injury at 250 g/ha [5]: 0%; plant injury at 250 g/ha [6]: 0%; plant injury at 250 g/ha [7]: 0%; plant injury at 250 g/ha [8]: 10%; pest or weed control at 250 g/ha [9]: 100%; pest or weed control at 250 g/ha [10]: 100%; plant injury at 250 g/ha ([11]; 250 g/ha application rate): 10%; pest or weed control at 250 g/ha ([12]; 250 g/ha application rate): 50%; pest or weed control at 250 g/ha ([13]; 250 g/ha application rate): 0%; pest or weed control at 250 g/ha ([14]; 250 g/ha application rate): 20%; pest or weed control at 250 g/ha ([15]; 250 g/ha application rate): 70%; pest or weed control at 250 g/ha ([16]; 250 g/ha application rate): 80%; pest or weed control at 250 g/ha ([17]; 250 g/ha application rate): 80% |
